Data: patent publication US20030010621A1, “NOVEL SYNTHESIS OF PHTHALOCYANINES BY MICROWAVE IRRADIATION” (priority 2001, published 2003)

Assay: Solubility of lab-made phthalocyanines in organic solvents
Assay type: physicochemical

Compound	solubility (THF)	solubility (acetone)	solubility (methanol)	solubility (n-hexane)	solubility (toluene)
[Ni+2].c1ccc2c(c1)-c1nc-2nc2[n-]c(nc3nc(nc4[n-]c(n1)c1ccccc41)-c1ccccc1-3)c1ccccc21 [NiPc]	◯ (slightly soluble (1 wt. % ˜ 3 wt. %))	◯ (slightly soluble (1 wt. % ˜ 3 wt. %))	Δ (hardly soluble (<1 wt. %))	Δ (hardly soluble (<1 wt. %))	◯ (slightly soluble (1 wt. % ˜ 3 wt. %))
[Co+2].c1ccc2c(c1)-c1nc-2nc2[n-]c(nc3nc(nc4[n-]c(n1)c1ccccc41)-c1ccccc1-3)c1ccccc21 [CoPc]	◯ (slightly soluble (1 wt. % ˜ 3 wt. %))	◯ (slightly soluble (1 wt. % ˜ 3 wt. %))	Δ (hardly soluble (<1 wt. %))	Δ (hardly soluble (<1 wt. %))	◯ (slightly soluble (1 wt. % ˜ 3 wt. %))
